Reference: patent US12427179B2, “Compositions and methods for diagnosis and treatment of neurodegenerative diseases” (EPITRACKER, INC., priority 2019, dated 2025)

Legend:
Type in all cases: cell-based, human
[1] = system: CASM3C: Coronary artery smooth muscle cells (IL-1β, TNFα, IFNγ); test: BioMAP CASM3C system; conditions: CASM3C system; at the compound's active concentration
Source text: The Diversity PLUS panel allows test agent characterization in an unbiased way across a broad set of systems modeling various human disease states. These systems are designed to model complex human tissue and disease biology of the vasculature, skin, lung, and inflammatory tissues.
(§1) BioMAP systems are constructed with one or more primary cell types from healthy human donors, with stimuli (such as cytokines or growth factors) added to capture relevant signaling networks that naturally occur in human tissue or pathological conditions. Vascular biology is modeled in both a Th1 (3C system) and a Th2 (4H system) inflammatory environment, as well as in a Th1 inflammatory state specific to arterial smooth muscle cells (CASM3C system). Additional systems recapitulate aspects of the systemic immune response including monocyte-driven Th1 inflammation (LPS system) or T cell stimulation (SAg system), chronic Th1 inflammation driven by macrophage activation (lMphg system) and the T cell-dependent activation of B cells that occurs in germinal centers (BT system). The BE3C system (Th1) and the BF4T system (Th2) represent airway inflammation of the lung, while the MyoF system models myofibroblast-lung tissue remodeling. Lastly, skin biology is addressed in the KF3CT system modeling Th1 cutaneous inflammation and the HDF3CGF system modeling wound healing.
(§2) Each test agent generates a signature BioMAP profile that is created from the changes in protein biomarker readouts within individual system environments. Biomarker readouts (7-17 per system) are selected for therapeutic and biological relevance, are predictive for disease outcomes or specific drug effects and are validated using agents with known mechanism of action (MoA). Each readout is measured quantitatively by immune-based methods that detect protein (e.g., ELISA) or functional assays that measure proliferation and viability. BioMAP readouts are diverse and include cell surface receptors, cytokines, chemokines, matrix molecules and enzymes.
(§3) Activated BioMAP systems were incubated with each compound for 24 to 72 hours. Protein-based biomarkers from activated cell systems were measured and compared with non-treated control systems.

[2] = system: /Mphg: Macrophages, venular endothelial cells (TLR2 ligand); test: BioMAP /Mphg system; conditions: at the compound's active concentration
Source text: The Diversity PLUS panel allows test agent characterization in an unbiased way across a broad set of systems modeling various human disease states. These systems are designed to model complex human tissue and disease biology of the vasculature, skin, lung, and inflammatory tissues. Quantitative measurements of 148 biomarker activities across this broad panel, along with comparative analysis of biological activities from known bioactive agents, were used to predict and compare the efficacy and function of each selected compound at selected concentrations (6.7 and/or 20 μM).
as §1
as §2, with “enzymes. In total, the Diversity PLUS panel contains 148 biomarker readouts that capture biological changes that occur within the physiological context of the particular BioMAP system. […]” for “enzymes.”
as §3

[3] = system: 3C system (Th1 vascular biology); test: BioMAP 3C system; conditions: at the compound's active concentration
Source text: The Diversity PLUS panel allows test agent characterization in an unbiased way across a broad set of systems modeling various human disease states. These systems are designed to model complex human tissue and disease biology of the vasculature, skin, lung, and inflammatory tissues. […] BioMAP systems are constructed with one or more primary cell types from healthy human donors, with stimuli (such as cytokines or growth factors) added to capture relevant signaling networks that naturally occur in human tissue or pathological conditions. […] Each test agent generates a signature BioMAP profile that is created from the changes in protein biomarker readouts within individual system environments. Biomarker readouts (7-17 per system) are selected for therapeutic and biological relevance, are predictive for disease outcomes or specific drug effects and are validated using agents with known mechanism of action (MoA). Each readout is measured quantitatively by immune-based methods that detect protein (e.g., ELISA) or functional assays that measure proliferation and viability. BioMAP readouts are diverse and include cell surface receptors, cytokines, chemokines, matrix molecules and enzymes. In total, the Diversity PLUS panel contains 148 biomarker readouts that capture biological changes that occur within the physiological context of the particular BioMAP system. […]

In the case of `O=C(O)CNC(=O)c1ccccc1` [hippurate], the “Thrombomodulin, log10 reduction vs nontreated controls” value [1] is reported as −0.16 log10, the “IL-8, log10 reduction vs nontreated controls” value [2] is reported as −0.12 log10 and the “Tissue factor, log10 reduction vs nontreated controls” value [3] is reported as −0.10 log10.
